Biological target: T1, Fatty-acid amide hydrolase 1 (Homo sapiens, UniProt O00519)
T1 sequence (O00519 whole entry): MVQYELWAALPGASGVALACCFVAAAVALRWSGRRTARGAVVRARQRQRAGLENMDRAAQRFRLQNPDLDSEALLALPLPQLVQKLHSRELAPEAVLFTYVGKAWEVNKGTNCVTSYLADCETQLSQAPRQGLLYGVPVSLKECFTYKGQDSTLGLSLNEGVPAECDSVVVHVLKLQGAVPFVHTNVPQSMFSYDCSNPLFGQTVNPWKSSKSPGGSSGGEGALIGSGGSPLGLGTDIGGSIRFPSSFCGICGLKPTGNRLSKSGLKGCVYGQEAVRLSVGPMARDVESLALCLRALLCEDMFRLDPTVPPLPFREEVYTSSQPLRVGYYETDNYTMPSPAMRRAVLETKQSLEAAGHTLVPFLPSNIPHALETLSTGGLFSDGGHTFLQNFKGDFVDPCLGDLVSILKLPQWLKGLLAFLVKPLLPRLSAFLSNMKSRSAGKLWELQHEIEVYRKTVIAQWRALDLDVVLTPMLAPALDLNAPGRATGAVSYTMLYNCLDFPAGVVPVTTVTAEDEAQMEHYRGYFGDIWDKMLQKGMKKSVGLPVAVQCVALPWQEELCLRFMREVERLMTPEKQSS
Test: Measuring FAAH Inhibition Potency
Protocol: MAGL inhibitor compounds were also counter-screened for FAAH inhibition potency using the following assay. Assessment of FAAH inhibition was performed using Fatty Acid Amide Hydrolase Inhibitor Screening Assay Kit (Cayman Item No. 10005196) following manufacture's instruction with some modifications. The kit utilizes human recombinant FAAH and the fluorescent substrate, AMC Arachidonoyl amide (AAMCA). 5 μL of assay buffer (125 mM Tris, pH 9.0, 1 mM EDTA, i.e. ethylenediaminetetraacetic acid) was added to a 384-well black plate (Corning, 3573). Test compounds and control inhibitor JZL-195 (Cayman Chemical, 13668) were tested in 10-concentration IC50 mode with 3-fold serial dilution at a starting concentration of 100 μM and 10 μM, respectively. 300 nL or 30 nL of test compounds were delivered into a 384-well black plate (Corning, 3573) using a Labcyte Echo, followed by addition of 15 μL of FAAH enzyme (Cayman, 700302) in assay buffer. After a 5-minute pre-incubation at room temperature, 10 μL of AAMCA was added in assay buffer to start the reaction. Final concentration of FAAH enzyme is not specified and AAMCA substrate was used at the 20 uM. […] The reaction was allowed to progress for 60 minutes, while the plate was read on an Envision plate reader at an Ex/Em of 350/460 nm with readings every minute. The data was analyzed in Microsoft Excel, using the slope between 30 and 59 minutes. […]

Cc1cc(C2=CC3(C2)CN(C(=O)c2cc(O)ccc2F)C3)n(-c2ccccc2C)n1 [US20240308985, Compound 120]
IC50: > 10 µM
